Measured values taken from ChEMBL document CHEMBL1687779, “Sodium nitrite-mediated killing of the major cystic fibrosis pathogens Pseudomonas aeruginosa, Staphylococcus aureus, and Burkholderia cepacia under anaerobic planktonic and biofilm conditions” (2010).
Activity calls are given as the source filed them. The calls are words filed in the database; no cut-off is given here.

Assays:
Burkholderia cepacia [1] = test: microbe, parasite or virus in culture; conditions: 24 h
Description: Antimicrobial activity against Burkholderia cepacia isolated from cystic fibrosis patient after 24 hrs aerobic condition

Staphylococcus aureus [2] = conditions: USA300, 2048 ug/ml
Description: Antimicrobial activity against Staphylococcus aureus USA300 assessed as 4 log inhibition of bacterial cell growth at 2048 ug/ml after 4 days under anaerobic condition

Pseudomonas aeruginosa [3] = test: Antimicrobial activity against mucoid Pseudomonas aeruginosa FRD1 harboring mucA22 mutant after 24 hrs under aerobic condition; conditions: FRD1, 24 h
Staphylococcus aureus [4] = test: Antimicrobial activity against Staphylococcus aureus USA300 after 24 hrs anaerobic condition; conditions: USA300, 24 h
Pseudomonas aeruginosa [5] = conditions: FRD1, 128 ug/ml
Description: Antimicrobial activity against mucoid Pseudomonas aeruginosa FRD1 harboring mucA22 mutant assessed as inhibition of bacterial cell growth at 128 ug/ml after 24 hrs under anaerobic condition

Staphylococcus aureus [6] = conditions: USA300, 512 ug/ml
Description: Antimicrobial activity against Staphylococcus aureus USA300 assessed as inhibition of bacterial cell growth at 512 ug/ml after 24 hrs under anaerobic condition

Pseudomonas aeruginosa [7] = test: Antimicrobial activity against non-mucoid Pseudomonas aeruginosa PAO1 after 24 hrs aerobic condition; conditions: PAO1, 24 h
Pseudomonas aeruginosa [8] = test: Antimicrobial activity against mucoid Pseudomonas aeruginosa FRD1 harboring mucA22 mutant after 24 hrs under anaerobic condition; conditions: FRD1, 24 h
Pseudomonas aeruginosa [9] = test: Antimicrobial activity against non-mucoid Pseudomonas aeruginosa PAO1 after 24 hrs anaerobic condition; conditions: PAO1, 24 h
Burkholderia cepacia [10] = conditions: 128 ug/ml
Description: Antimicrobial activity against Burkholderia cepacia isolated from cystic fibrosis patient assessed as inhibition of bacterial cell growth at 128 ug/ml after 48 hrs under anaerobic condition

Pseudomonas aeruginosa [11] = conditions: PAO1, 64 to 256 ug/ml
Description: Antimicrobial activity against non-mucoid Pseudomonas aeruginosa PAO1 assessed as inhibition of bacterial cell growth at 64 to 256 ug/ml after 24 hrs under anaerobic condition

Pseudomonas aeruginosa [12] = conditions: FRD1, 64 ug/ml
Description: Antimicrobial activity against mucoid Pseudomonas aeruginosa FRD1 harboring mucA22 mutant assessed as inhibition of bacterial cell growth at 64 ug/ml after 24 hrs under anaerobic condition

Staphylococcus aureus [13] = conditions: USA300, 1024 ug/ml
Description: Antimicrobial activity against Staphylococcus aureus USA300 assessed as 2 log inhibition of bacterial cell growth at 1024 ug/ml after 2 days under anaerobic condition

Staphylococcus aureus [14] = test: Antimicrobial activity against Staphylococcus aureus USA300 after 24 hrs aerobic condition; conditions: USA300, 24 h
Pseudomonas aeruginosa [15] = conditions: FRD1, 256 ug/ml
Description: Antimicrobial activity against mucoid Pseudomonas aeruginosa FRD1 harboring mucA22 mutant assessed as 2 log inhibition of bacterial cell growth at 256 ug/ml after 2 days under anaerobic condition

O=N[O-].[Na+] [SODIUM NITRITE]
MIC (Burkholderia cepacia [1]): 512 µg/mL
inhibition (Staphylococcus aureus [2]): Active
MIC (Pseudomonas aeruginosa [3]): 1020 µg/mL
MIC (Staphylococcus aureus [4]): 1020 µg/mL
inhibition (Pseudomonas aeruginosa [5]): Active
inhibition (Staphylococcus aureus [6]): Active
MIC (Pseudomonas aeruginosa [7]): 2050 µg/mL
MIC (Pseudomonas aeruginosa [8]): 128 µg/mL
MIC (Pseudomonas aeruginosa [9]): 512 µg/mL
inhibition (Burkholderia cepacia [10]): Active
inhibition (Pseudomonas aeruginosa [11]): Active
inhibition (Pseudomonas aeruginosa [12]): Active
inhibition (Staphylococcus aureus [13]): Active
MIC (Staphylococcus aureus [14]): 4100 µg/mL
inhibition (Pseudomonas aeruginosa [15]): Active
